Experiments:
[1] = Solubility in n-hexane (stir 1 hour, centrifuge, weigh dried residue of supernatant); format: physicochemical; conditions: for solubility in n-hexane: room temperature (25° C.), stirred 1 hour
Procedure: The solubility in n-hexane at 25° C. is determined as follows. In some detail, a predetermined amount of n-hexane is added to a fullerene derivative. The mixture is then stirred at 25° C. for 1 hour. The resulting slurry is then subjected to centrifugal separation. The solution is then decanted. The solvent is then distilled off the resulting supernatant liquid. The resulting precipitate is dried in vacuo, and then measured for weight. Thus, the solubility in n-hexane at 25° C. is calculated.
To 100 mg of C60[CH2Si(CH3)3]5H was added 0.5 ml of n-hexane. The mixture was then stirred at 25° C. for 1 hour. The slurry was purified, and then subjected to centrifugal separation by a centrifugal separator. The resulting supernatant liquid was withdrawn. The solvent was then distilled off. The residue was then dried in vacuo. The weight of the residue was then measured. The result was 32.5 mg.

[2] = Stability of the solid at room temperature in the air; format: physicochemical; conditions: solid (brown powder)

Substance | solubility in n-hexane [1] | solubility in n-hexane measured at 50° C. ([1]; 50° C., otherwise same conditions as in Example 1) | stability when solid [2]
(CH3)5C60H | less than 0.001 mg/ml |  | 
C60[CH2Si(CH3)3]2 | about 0.05 mg/ml | about 0.2 mg/ml | 
Rh[C60{CH2Si(CH3)3}3](1,5-cyclooctadiene) | 5.0 mg/mL |  | 

Continued, values first:

solubility in n-hexane [1] | solubility in n-hexane measured at 50° C. ([1]; 50° C., otherwise same conditions as in Example 1) | stability when solid [2] | Substance
less than 0.001 mg/ml |  |  | (C6H5)5C60H
65 mg/mL |  | stable at room temperature in the air | C60[CH2Si(CH3)3]5H
11 mg/mL |  | stable at room temperature in the air | C60{CH2Si(CH3)3}3H
